Read-outs that look alike come from different tables or passages of the source.
Tests used:
[1] = target: T1, recombinant human JAK1 kinase domain protein (Residues 854-1154) (Homo sapiens, UniProt P23458); experiment: JAK1 biochemical assay (LabChip mobility shift, Ki); conditions: read-out: Biochem JAK1 Ki
T1 construct: human JAK1 kinase domain protein (Residues 854-1154); purchased Proteros Biostructures GmbH (Martinsried, Germany); host or cells: insect cells

[2] = tested on: IL-13-stimulated P-STAT6 in TF-1 human erythroleukemia cells; experiment: P-STAT6 TF-1 + IL-13 assay (JAK1 pathway); type: cell-based; conditions: IL13 stimulation, read-out: Cellular JAK1 PSTAT6 TF-1 + IL13
Protocol: (§1) TF-1 human erythroleukemia cells (ATCC′; Manassas, VA; Catalog No. CRL-2003™) were grown in Roswell Park Memorial Institute (RPMI) medium supplemented with 10% heat-inactivated fetal bovine serum (FBS), 2 ng/mL granulocyte-macrophage colony-stimulating factor, 1× non-essential amino acids (NEAA), and 1 mM sodium pyruvate. The day before the assay, the cultures were transferred to Opti-MEM™, 1×NEAA, 1 mM sodium pyruvate, and 0.5% charcoal-stripped FBS (starve medium). Inhibitor stock solutions (5 mM in DMSO) were serially diluted 1:2 in DMSO to generate a 10-point concentration titration (at 500× test concentration), which was further diluted by a 50-fold dilution in Assay Medium (RPMI containing 1×NEAA and 1 mM sodium pyruvate) to generate a 10× concentration titration (in 2% DMSO). The cells (300,000 cells/well in 35 μL of Assay Medium) were seeded in 384-well Greiner plates. Diluted inhibitor at 10× concentration (5 μL) was added to the cells and the plates were incubated for 30 minutes at 37° C. in a humidified incubator. Cells were stimulated with the human recombinant cytokine at the respective EC90 concentrations, as previously determined for each individual lot. For the phosphorylated signal transducer and activator of transcription 6 (P-STAT6) TF-1+Interleukin-13 (IL-13) assay, 10 μL of 250 ng/mL IL-13 (R&D Systems; Minneapolis, MN) was added to the cells, which were then incubated for 10 minutes at 37° C. For the P-STAT5 TF-1+Erythropoietin (EPO) assay, 10 μL of 110 IU/mL EPO (Gibco Life Technologies, Catalog No. PHC2054) was added to the cells, which were then incubated for […] at 37° C. For both assays, the incubation was followed by addition to the cells of 5 μL of ice-cold 10× cell lysis buffer (Cell Signaling Technologies; Danvers, MA; Catalog No. 9803S) containing 1 mM phenylmethylsulfonyl fluoride (PMSF). Assay plates were frozen at −80° C. for a minimum of 1 hour. In the IL-13 assay, P-STAT6 was measured by coating goat anti-rabbit (GAR) plates (Meso Scale Discovery [MSD]; Rockville, MD; Catalog No. MSD L21RA-1) with rabbit anti-human total STAT6 antibody (Cell Signaling Technologies; Catalog No. 9362S), incubating the cell lysates in the coated plates overnight at 4° C., and then detecting with mouse anti-P-STAT6 (Tyr641) Clone 16E12 antibody (MilliporeSigma; Burlington, MA; Catalog No. 05-590, custom labeled by MSD with SULFO-tag) using standard MSD plate processing, washing, and detection protocols. In the EPO assay, P-STAT5 was detected using the phospho-STAT5a,b Whole Cell Lysate Kit (MSD; Catalog No. K150IGD-1). The electrochemiluminescence (ECL) signal of wells was read on the MESO SECTOR 5600 (MSD) reader.
(§2) Data analysis was performed by subtracting the negative control (cytokine stimulated and 20 μM control inhibitor-treated cells) mean ECL value from the ECL value of all wells, determining percent of control for test compound well ECL values relative to the positive control (cytokine stimulated and DMSO-treated cells) mean ECL value, and determining the IC50 for test compounds with a four-parameter logistic fit model as shown in Equation 4.

[3] = tested on: EPO-stimulated P-STAT5 in TF-1 human erythroleukemia cells; experiment: P-STAT5 TF-1 + EPO assay (JAK2 pathway); type: cell-based; conditions: EPO stimulation, read-out: Cellular JAK2 PSTAT5 TF-1 + EPO
Protocol: as §1, §2

[4] = tested on: IL-13-stimulated STAT6 phosphorylation in human lung bronchial epithelial BEAS-2B cell line; experiment: P-STAT6 BEAS-2B + IL-13 cell assay; type: cell-based; conditions: BEAS2B cells, IL13 stimulation, read-out: Cellular JAK1 PSTAT6 BEAS2B + IL13
How it was run: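 Phospho-STAT6 (Tyr641) was quantified in lysates by MSD electrochemiluminescence after human IL-13 challenge (250 ng/mL stock, 15 min, 37 °C). Before that, BEAS-2B cells cultured 48 h had 1 h compound exposure over 10 concentrations. Percent of control was fitted to a four-parameter logistic model to give IC50.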

[5] = target: Recombinant human JAK2 kinase domain protein (Residues 812-1132) (Homo sapiens, UniProt O60674); experiment: JAK2 biochemical assay (LabChip mobility shift, Ki); conditions: Biochem JAK2 Ki
Chain of Recombinant human JAK2 kinase domain protein (Residues 812-1132) (O60674 812-1132): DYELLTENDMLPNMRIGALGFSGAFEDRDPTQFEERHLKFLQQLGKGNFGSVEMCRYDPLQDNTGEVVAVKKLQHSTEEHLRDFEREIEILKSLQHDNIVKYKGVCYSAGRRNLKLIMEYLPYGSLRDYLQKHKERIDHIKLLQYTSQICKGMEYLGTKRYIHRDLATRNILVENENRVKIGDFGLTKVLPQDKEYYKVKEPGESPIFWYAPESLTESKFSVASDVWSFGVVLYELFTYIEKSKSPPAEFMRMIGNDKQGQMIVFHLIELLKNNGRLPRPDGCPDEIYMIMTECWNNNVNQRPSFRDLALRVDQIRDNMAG

T1 sequence (P23458 854-1154): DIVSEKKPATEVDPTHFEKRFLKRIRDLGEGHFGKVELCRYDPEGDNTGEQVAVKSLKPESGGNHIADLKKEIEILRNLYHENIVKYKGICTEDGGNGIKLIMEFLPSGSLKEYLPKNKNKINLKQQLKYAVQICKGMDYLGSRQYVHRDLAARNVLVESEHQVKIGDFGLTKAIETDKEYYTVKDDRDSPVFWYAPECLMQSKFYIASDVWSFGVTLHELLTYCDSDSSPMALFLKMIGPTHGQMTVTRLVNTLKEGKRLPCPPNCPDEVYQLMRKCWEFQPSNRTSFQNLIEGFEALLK

Compound	Ki [1] [nM]	IC50 ([2]; Homo sapiens, TF-1, TF-1 cells) [nM]	IC50 ([3]; Homo sapiens, TF-1, TF-1 cells) [nM]	Ki [5] [nM]	IC50 ([2]; TF-1 cells) [nM]	IC50 ([3]; TF-1 cells) [nM]	IC50 ([4]; Homo sapiens, BEAS-2B) [nM]	IC50 [4] [nM]
CC(O)Cn1cc(Oc2ccc(OC(F)F)c(-c3nn(C)cc3NC(=O)c3cnn4cccnc34)c2)cn1 (racemic) [Example 121, N-[3-[2-(difluoromethoxy)-5-[1-[rac-(2S)-2-hydroxypropyl]pyrazol-4-yl]oxy-phenyl]-1-methyl-pyrazol-4-yl]pyrazolo[1,5-a]pyrimidine-3-carboxamide]	0.28	4	4.9	0.18			18	
CN1CC(O)C(n2cc(Oc3ccc(OC(F)F)c(-c4nn(C)cc4NC(=O)c4cnn5cccnc45)c3)cn2)C1 (stereo not drawn) [Example 179, N-[3-[2-(difluoromethoxy)-5-[1-(4-hydroxy-l-methyl-pyrrolidin-3-yl)pyrazol-4-yl]oxy-phenyl]-1-methyl-pyrazol-4-yl]pyrazolo[1,5-a]pyrimidine-3-carboxamide]	0.82			0.4	92	72		50
Cn1cc(NC(=O)c2cnn3cccnc23)c(-c2cc(Oc3cnn(S(C)(=O)=O)c3)ccc2OC(F)F)n1 [Example 195, N-[3-[2-(difluoromethoxy)-5-(1-methylsulfonylpyrazol-4-yl)oxy-phenyl]-1-methyl-pyrazol-4-yl]pyrazolo[1,5-a]pyrimidine-3-carboxamide]	0.38	4.1	9.7	0.26			13	
Cn1ccc(Oc2ccc(OC(F)F)c(-c3nn(C)cc3NC(=O)c3cnn4cccnc34)c2)n1 [Example 143, N-[3-[2-(difluoromethoxy)-5-(1-methylpyrazol-3-yl)oxy-phenyl]-1-methyl-pyrazol-4-yl]pyrazolo[1,5-a]pyrimidine-3-carboxamide]	0.69	3	23	0.36			26	
CN1CC(O)C(n2cc(Oc3ccc(OC(F)F)c(-c4nn(C)cc4NC(=O)c4cnn5cccnc45)c3)cn2)C1 (stereo not drawn) [Example 178, N-[3-[2-(difluoromethoxy)-5-[1-(4-hydroxy-l-methyl-pyrrolidin-3-yl)pyrazol-4-yl]oxy-phenyl]-1-methyl-pyrazol-4-yl]pyrazolo[1,5-a]pyrimidine-3-carboxamide]	0.29		49	0.21	26		32	
CN1CCC(n2cc(Oc3ccc(OC(F)F)c(-c4nn(C)cc4NC(=O)c4cnn5cccnc45)c3)cn2)C(O)C1 (centres unmarked) [Example 187, N-[3-[2-(difluoromethoxy)-5-[1-(3-hydroxy-1-methyl-4-piperidyl)pyrazol-4-yl]oxy-phenyl]-1-methyl-pyrazol-4-yl]pyrazolo[1,5-a]pyrimidine-3-carboxamide]	0.35			0.24	34	38		44
Cn1cc(NC(=O)c2cnn3cccnc23)c(-c2cc(Oc3cn[nH]c3)ccc2OC(F)F)n1 [Example 160, N-[3-[2-(difluoromethoxy)-5-(1H-pyrazol-4-yloxy)phenyl]-1-methyl-pyrazol-4-yl]pyrazolo[1,5-a]pyrimidine-3-carboxamide]	0.1	2.1	3.6	0.07			8.3	
Cn1cc(NC(=O)c2cnn3cccnc23)c(-c2cc(Oc3cnn([C@H]4CCNC4)c3)ccc2OC(F)F)n1 (racemic) [Example 144, N-[3-[2-(difluoromethoxy)-5-[1-[rac-(3S)-pyrrolidin-3-yl]pyrazol-4-yl]oxy-phenyl]-1-methyl-pyrazol-4-yl]pyrazolo[1,5-a]pyrimidine-3-carboxamide]	3.9			3.7			160	
Cn1cc(NC(=O)c2cnn3cccnc23)c(-c2cc(Oc3ccc(C(N)=O)cc3)ccc2OC(F)F)n1 [Example 136, N-[3-[5-(4-carbamoylphenoxy)-2-(difluoromethoxy)phenyl]-1-methyl-pyrazol-4-yl]pyrazolo[1,5-a]pyrimidine-3-carboxamide]	0.5			0.23			46	

Second part, led by results:

Ki [1] [nM]	IC50 ([2]; Homo sapiens, TF-1, TF-1 cells) [nM]	IC50 ([3]; Homo sapiens, TF-1, TF-1 cells) [nM]	Ki [5] [nM]	IC50 ([2]; TF-1 cells) [nM]	IC50 ([3]; TF-1 cells) [nM]	Compound	IC50 ([4]; Homo sapiens, BEAS-2B) [nM]	IC50 [4] [nM]
0.31	4.6	7.3	0.18			Cn1cc(Oc2ccc(OC(F)F)c(-c3nn(C)cc3NC(=O)c3cnn4cccnc34)c2)cn1 [Example 59, N-[3-[2-(difluoromethoxy)-5-(1-methylpyrazol-4-yl)oxy-phenyl]-1-methyl-pyrazol-4-yl]pyrazolo[1,5-a]pyrimidine-3-carboxamide]	13	
0.28	3.3	2.1	0.2			CC(=O)n1cc(Oc2ccc(OC(F)F)c(-c3nn(C)cc3NC(=O)c3cnn4cccnc34)c2)cn1 [Example 192, N-[3-[5-(1-acetylpyrazol-4-yl)oxy-2-(difluoromethoxy)phenyl]-1-methyl-pyrazol-4-yl]pyrazolo[1,5-a]pyrimidine-3-carboxamide]	9.3	
0.76	22	58	0.39			CN1CCC(n2cc(Oc3ccc(OC(F)F)c(-c4nn(C)cc4NC(=O)c4cnn5cccnc45)c3)cn2)C(O)C1 (centres unmarked) [Example 186, N-[3-[2-(difluoromethoxy)-5-[1-(3-hydroxy-1-methyl-4-piperidyl)pyrazol-4-yl]oxy-phenyl]-1-methyl-pyrazol-4-yl]pyrazolo[1,5-a]pyrimidine-3-carboxamide]	48	
1.6	12	33	1.2			CN1CCC(n2cc(Oc3ccc(OC(F)F)c(-c4nn(C)cc4NC(=O)c4cnn5cccnc45)c3)cn2)C1 (racemic) [Example 141, N-[3-[2-(difluoromethoxy)-5-[1-[rac-(3R)-1-methylpyrrolidin-3-yl]pyrazol-4-yl]oxy-phenyl]-1-methyl-pyrazol-4-yl]pyrazolo[1,5-a]pyrimidine-3-carboxamide]		46
0.32	3.6	11	0.19			Cn1cc(NC(=O)c2cnn3cccnc23)c(-c2cc(Oc3cccnc3)ccc2OC(F)F)n1 [Example 2, N-[3-[2-(difluoromethoxy)-5-(3-pyridyloxy)phenyl]-1-methyl-pyrazol-4-yl]pyrazolo[1,5-a]pyrimidine-3-carboxamide]	20	
0.29	76	160	0.23			Cn1cc(NC(=O)c2cnn3cccnc23)c(-c2cc(Oc3cnn([C@@H]4CNCC[C@H]4O)c3)ccc2OC(F)F)n1 (stereo in doubt) [Example 181, N-[3-[2-(difluoromethoxy)-5-[1-[rac-(3R,4R)-4-hydroxy-3-piperidyl]pyrazol-4-yl]oxy-phenyl]-1-methyl-pyrazol-4-yl]pyrazolo[1,5-a]pyrimidine-3-carboxamide]	60	

Source: patent publication US12528812B2 (Genentech, Inc., priority 2020, dated 2026)
